Experimental data taken from patent publication US10640547B2, “Immunotherapy against melanoma and other cancers” (IMMATICS BIOTECHNOLOGIES GMBH, priority 2016, dated 2020).

How the values were obtained:
HLA-A*02:01 = HLA-A*02:01 (Homo sapiens, UniProt P04439, D140Y/D185E/D98H/E176V/E277Q/G131W/G231S/I119V/I121R/I166T/I218V/L300P/L318F/N151K/N90K/P208A/P217A/Q86G/Q94H/R138H/R169H/T345S); assay: MHC binding assay (UV-ligand exchange, β2m ELISA); details: MHC class I binding score; binding to HLA-A*02:01 ranged by peptide exchange yield (UV-ligand exchange, β2m ELISA)
Method in brief: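 Peptide–MHC complexes formed by UV-ligand exchange, cleaving a UV-sensitive peptide so the test peptide can bind. Exchange yield measured by ELISA: complexes captured on streptavidin-coated wells, diluted 100-fold, detected with HRP anti-β2m (1 h, 37 °C) and TMB at 450 nm, against refolded HLA-A*02:01/MLA-001 standards (15-500 ng/ml).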

CD8+ T cells = assay: In vitro immunogenicity: T-cell priming with artificial APCs loaded with peptide/MHC and anti-CD28, pMHC multimer readout; type: cell-based, human; details: for Wells positive [%]: Table 10B, HLA-A*02 restricted peptides, percentage of positive wells among evaluable; for Donors (in vitro immunogenicity) / Wells (in vitro immunogenicity): Table 10A, HLA class I peptides
Source text: In order to obtain information regarding the immunogenicity of the TUMAPs of the present invention, the inventors performed investigations using an in vitro T-cell priming assay based on repeated stimulations of CD8+ T cells with artificial antigen presenting cells (aAPCs) loaded with peptide/MHC complexes and anti-CD28 antibody.
In order to perform in vitro stimulations by artificial antigen presenting cells loaded with peptide-MHC complex (pMHC) and anti-CD28 antibody, the inventors first isolated CD8+ T cells from fresh HLA-A*02 leukapheresis products via positive selection using CD8 microbeads (Miltenyi Biotec, Bergisch-Gladbach, Germany) of healthy donors obtained from the University clinics Mannheim, Germany, after informed consent.
PBMCs and isolated CD8+ lymphocytes were incubated in T-cell medium (TCM) until use consisting of RPMI-Glutamax (Invitrogen, Karlsruhe, Germany) supplemented with 10% heat inactivated human AB serum (PAN-Biotech, Aidenbach, Germany), 100 U/ml Penicillin/100 μg/ml Streptomycin (Cambrex, Cologne, Germany), 1 mM sodium pyruvate (CC Pro, Oberdorla, Germany), 20 μg/ml Gentamycin (Cambrex). 2.5 ng/ml IL-7 (PromoCell, Heidelberg, Germany) and 10 U/ml IL-2 (Novartis Pharma, Nürnberg, Germany) were also added to the TCM at this step.
Generation of pMHC/anti-CD28 coated beads, T-cell stimulations and readout was performed in a highly defined in vitro system using four different pMHC molecules per stimulation condition and 8 different pMHC molecules per readout condition.
The purified co-stimulatory mouse IgG2a anti human CD28 Ab 9.3 (Jung et al., 1987) was chemically biotinylated using Sulfo-N-hydroxysuccinimidobiotin as recommended by the manufacturer (Perbio, Bonn, Germany). Beads used were 5.6 μm diameter streptavidin coated polystyrene particles (Bangs Laboratories, Illinois, USA).
800.000 beads/200 μl were coated in 96-well plates in the presence of 4×12.5 ng different biotin-pMHC, washed and 600 ng biotin anti-CD28 were added subsequently in a volume of 200 μl. Stimulations were initiated in 96-well plates by co-incubating 1×10^6 CD8+ T cells with 2×10^5 washed coated beads in 200 μl TCM supplemented with 5 ng/ml IL-12 (PromoCell) for 3 days at 37° C. Half of the medium was then exchanged by fresh TCM supplemented with 80 U/ml IL-2 and incubating was continued for 4 days at 37° C. This stimulation cycle was performed for a total of three times. For the pMHC multimer readout using 8 different pMHC molecules per condition, a two-dimensional combinatorial coding approach was used as previously described (Andersen et al., 2012) with minor modifications encompassing coupling to 5 different fluorochromes. Finally, multimeric analyses were performed by staining the cells with Live/dead near IR dye (Invitrogen, Karlsruhe, Germany), CD8-FITC antibody clone SK1 (BD, Heidelberg, Germany) and fluorescent pMHC multimers. For analysis, a BD LSRII SORP cytometer equipped with appropriate lasers and filters was used. Peptide specific cells were calculated as percentage of total CD8+ cells. Evaluation of multimeric analysis was done using the FlowJo software (Tree Star, Oregon, USA). In vitro priming of specific multimer+CD8+ lymphocytes was detected by comparing to negative control stimulations.

Substance	Peptide exchange (HLA-A*02:01)	Wells positive [%] (CD8+ T cells)	Donors (in vitro immunogenicity) (CD8+ T cells)	Wells (in vitro immunogenicity) (CD8+ T cells)
3 (VLFKDPVSV; listed as Homo sapiens) [compound 3]	++++ (>75% = ++++)	+ (<20% = +)		
4 (KTWDQVPFSV; listed as Homo sapiens) [compound 4]	++++ (>75% = ++++)	+ (<20% = +)		
8 (SIIPYLLEA; listed as Homo sapiens) [compound 8]	++++ (>75% = ++++)	++ (20%-49% = ++)		
9 (SLAGLVLYV; listed as Homo sapiens) [compound 9]	++++ (>75% = ++++)	++ (20%-49% = ++)		
10 (KMTQYITEL; listed as Homo sapiens) [compound 10]	++++ (>75% = ++++)	++ (20%-49% = ++)		
11 (TLIELLLPKL; listed as Homo sapiens) [compound 11]	++++ (>75% = ++++)	+ (<20% = +)		
12 (RLDDKTTNV; listed as Homo sapiens) [compound 12]	+++ (>50 = +++)	++ (20%-49% = ++)		
13 (IQSETTVTV; listed as Homo sapiens) [compound 13]	++++ (>75% = ++++)	++ (20%-49% = ++)		
14 (VLYEMLYGL; listed as Homo sapiens) [compound 14]	++++ (>75% = ++++)	+++ (50%-69% = +++)		
15 (VLYDPVVGC; listed as Homo sapiens) [compound 15]	++++ (>75% = ++++)	+ (<20% = +)		
16 (GLFPSNFVTA; listed as Homo sapiens) [compound 16]	++++ (>75% = ++++)	+ (<20% = +)		
17 (GVVHGVATV; listed as Homo sapiens) [compound 17]	++++ (>75% = ++++)	+ (<20% = +)		
18 (SLADVVDTL; listed as Homo sapiens) [compound 18]	++++ (>75% = ++++)	+ (<20% = +)		
20 (VISPHGIASV; listed as Homo sapiens) [compound 20]	++++ (>75% = ++++)	++ (20%-49% = ++)		
21 (FMYNFQLVTL; listed as Homo sapiens) [compound 21]	++ (>20% = ++)	+ (<20% = +)		
31 (FLPRKFPSL; listed as Homo sapiens) [compound 31]	++++ (>75% = ++++)	++ (20%-49% = ++)		
33 (SLYSYFQKV; listed as Homo sapiens) [compound 33]	++++ (>75% = ++++)	++++ (≥70% = ++++)		
34 (YLINFEIRSL; listed as Homo sapiens) [compound 34]	++++ (>75% = ++++)	+ (<20% = +)		
116 (LMDETMKEL; listed as Homo sapiens) [compound 116]	++++ (>75% = ++++)	+ (<20% = +)		

Substance	Peptide exchange (HLA-A*02:01)	Wells positive [%] (CD8+ T cells)	Donors (in vitro immunogenicity) (CD8+ T cells)	Wells (in vitro immunogenicity) (CD8+ T cells)
121 (FLEDLVPYL; listed as Homo sapiens) [compound 121]	++++ (>75% = ++++)	+++ (50%-69% = +++)		
128 (ALFPGDVDRL; listed as Homo sapiens) [compound 128]	+++ (>50 = +++)	+ (<20% = +)		
133 (ALDPAYTTL; listed as Homo sapiens) [compound 133]	+++ (>50 = +++)	+ (<20% = +)		
155 (GLAGFFASV; listed as Homo sapiens) [compound 155]	++++ (>75% = ++++)	++++ (≥70% = ++++)		
189 (KALQFLEEV; listed as Homo sapiens) [compound 189]	++++ (>75% = ++++)	+ (<20% = +)		
191 (YLDKMNNNI; listed as Homo sapiens) [compound 191]	++++ (>75% = ++++)	+ (<20% = +)		
192 (KLFTQIFGV; listed as Homo sapiens) [compound 192]	++++ (>75% = ++++)	+ (<20% = +)		
308 (KLLSDPNYGV; listed as Homo sapiens) [compound 308]			++++ (≥70% = ++++)	+ (<20% = +)
310 (ALASVIKEL; listed as Homo sapiens) [compound 310]			++ (20%-49% = ++)	+ (<20% = +)
315 (KLSWDLIYL; listed as Homo sapiens) [compound 315]			++++ (≥70% = ++++)	++ (20%-49% = ++)
318 (SIIEYLPTL; listed as Homo sapiens) [compound 318]			++++ (≥70% = ++++)	+ (<20% = +)
320 (KIIGIMEEV; listed as Homo sapiens) [compound 320]			++++ (≥70% = ++++)	++++ (≥70% = ++++)
321 (YLPTFFLTV; listed as Homo sapiens) [compound 321]			+++ (50%-69% = +++)	++ (20%-49% = ++)
322 (SLHFLILYV; listed as Homo sapiens) [compound 322]			+++ (50%-69% = +++)	++ (20%-49% = ++)
323 (VVDKTLLLV; listed as Homo sapiens) [compound 323]			++++ (≥70% = ++++)	+++ (50%-69% = +++)
326 (ALSGTLSGV; listed as Homo sapiens) [compound 326]			++++ (≥70% = ++++)	+ (<20% = +)
328 (SLSQELVGV; listed as Homo sapiens) [compound 328]			++ (20%-49% = ++)	+ (<20% = +)
332 (AVVEFLTSV; listed as Homo sapiens) [compound 332]			++ (20%-49% = ++)	+ (<20% = +)
336 (YVDPVITSI; listed as Homo sapiens) [compound 336]			++++ (≥70% = ++++)	++ (20%-49% = ++)
